Key:
[1] = broad range of doses; cited from earlier work
[2] = test system: 5-HT receptor subtypes; conditions: cited from earlier work
[3] = in vivo; cited from earlier work
[4] = test system: C3H mice; test: Peak procedure (30 second reinforcement interval), C3H mice; format: in vivo
Protocol: The peak procedure is a behavioral model designed to assess an animal's ability to learn an appropriate time period in which to perform a task and a time period in which the animal will be rewarded if the task is performed. The model provides information concerning excitatory and inhibitory components of behavior, as subjects must respond to perform a task when appropriate and stop responding in an “empty trial” when time for reward has elapsed and the reward has not been delivered. The task is sensitive to conditions where there is a failure in inhibitory mechanisms, such as seems to be the case for ADHD (Pliszka et al., Biol. Psychiatry, 48:238-46, 2000).
In the peak procedure, mice are trained to work for food that is delivered at the same time in each trial, but withdrawn in some unreinforced trials. Typically, the response rate increases up to a maximum around the reinforcement time, and then decreases to a low toward the end of the trial. The shape of the response rate indicates whether the animal is sensitive to the time of reinforcement. To be able to perform well in this model, the animals need to be able to learn several tasks. First, the animal must make an association between a response (lever pressing, nose poking or key pecking) and the delivery of reward. Second, the animal must be able to perceive and remember time. Third, the animal must act on its remembered time by starting and then stopping or inhibiting the response. Fourth, the animal must be able to compare the elapsed time in the trials with its remembered time to reinforcement. […] Accuracy is measured by looking at the shape of the response function; therefore, if the response function is sharper and centered on the reinforcement time it supports a conclusion that attentional processes have been heightened.
Mice were food deprived to 85-90% of their free-feeding body weight by supplementing food earned during experimental sessions with a measured amount after the session had ended. […]

[5] = test system: 5-HT1B knockout (1BKO) mice; test: DRL-36s schedule after FR5 conditioning, 5-HT1B knockout mice; format: in vivo
Protocol: Experiments were conducted in eight identical mouse operant chambers (16×14×13 cm) with stainless steel grid floors (ENV-307M; Med Associates Inc., Georgia, Vt., USA) housed in sound-insulating and ventilated cubicles. Each chamber was equipped with two ultra-sensitive retractable levers, one on each side of a food cup containing photocells to register nose poke behavior and in which a pellet dispenser delivered 20 mg food pellets (Formula A/I, P.J. Noyes Company Inc., Lancaster, N.H., USA). A red house light (50 lux) was located in the center of the wall opposite to the food cup and levers. Stimulus lights were located above each lever and above the food cup. Experimental sessions were controlled and data were recorded by a computer.
Mice trained on DRL procedure first received operant conditioning. DRL-36s task was adapted from procedures used in rats (O'Donnell and Seiden, supra). Briefly, mice first learned to respond for food under a DRL 6 sec schedule, which means that mice had to wait at least 6 seconds between successive lever presses in order to obtain a food reward. Subsequently the schedule requirement was increased every session in steps of 6 sec to 36 sec (DRL 36 sec). Each session started with the illumination of the house light, the stimulus light above the food cup and the presentation of the left lever for the duration of the session. […] If the mouse presses too soon, no reinforcement is given, the clock is reset to zero, and a new 36-sec waiting period starts. In this way, the DRL-36s schedule task primarily measures waiting strategies which reflect hyperactivity-impulsivity behaviors associated with ADHD. Animals were trained until performances on the DRL 36 sec schedule had stabilized (approximately 25 sessions). All training sessions lasted 60 min and were conducted 5 days per week from Monday-Friday. The total number of lever presses (responses), the total number of reinforcements, and the inter-response times (IRT) are recorded.
Data were analyzed as described elsewhere (Richards et al., J. Exp. Anal. Behav. 60:361-385, 1993; Sabol et al., Psychopharmacology 121:57-65, 1995). The inter-response time (IRT) analysis included three measures for the characterization of DRL 36 sec IRT distributions: peak area, peak location and burst ratio. Only peak area (PkA) and peak location (PkL) are presented. The PkA measure is the area of the obtained IRT distribution of a mouse above the corresponding negative exponential, a computation based on mean of obtained IRT durations excluding the burst component of IRT<3 sec (see Richards et al., supra, for details). […] PkL is calculated as the median of the area of the obtained IRT distribution above the corresponding negative exponential. […]

For c1cc2c(c(N3CCNCC3)c1)OCCO2 [eltoprazine, 1-(2,3-dihydro-1,4-benzodioxanyl-5-yl) piperazine], the “overall safety and tolerance” value [1] is given as “good”, the “affinity for the 5-HT1A, 5-HT1B, and 5-HT2C receptors” value [2] is given as “roughly equipotent affinity” and the “affinity for the 5-HT1D receptor” value ([2]; compared with serotonin) is given as “relatively low affinity”. For the same compound, the absolute bioavailability [3] was “about 95%”, the “cumulative renal excretion of unchanged eltoprazine” value [3] was “about 40%” and the “dose dependence of plasma concentrations” value [3] was “increase in a linear dose-dependent manner”. For the same compound, the plasma elimination half-life [3] was 5 to 12 h, the terminal half-life [3] was 7 to 9 h and the “time to maximum plasma concentration after administration” value [3] was 1 to 4 h. For the same compound, the “relative response rate curve in peak trials” value ([4]; 0.1 and 0.9 mg/kg (FIG. 3)) was “cognitive enhancement was observed”, the “relative response rate curve in peak trials” value ([4]; 1, 2 and 4 mg/kg (FIGS. 2A-C)) was “flatter than the saline curve” and the number of reinforcements ([5]; 0.5 mg/kg and 1 mg/kg i.p. (FIG. 13A)) was “significantly decreased reinforcements”. The response rate ([5]; 0.5 mg/kg i.p. (FIG. 13B)) was “significantly decreased response rates”.

Reference: patent publication US7557109B2, “Treatment for attention-deficit hyperactivity disorder” (priority 2001, dated 2009)
